Assay results from US11155668B2, “Contact-killing, QAC functionalized thermoplastic polyurethane for catheter applications” (THE UNIVERSITY OF AKRON, priority 2017, dated 2021).

Columns and labels:
[1] = tested on: MRSA; experiment: Contact-killing assay (adapted from ISO 22196) on allyl-TPU blade-coated samples modified with Qx-SH; assay type: cell-based; conditions: n = 1, negative control polypropylene 1.51 × 10^5
Description: To functionalize the allyl-TPU blade-coated samples with Qx-SH reagents, thiol-ene reactions were performed using the same procedure described for rhodamine-SH. Briefly, blade-coated films of allyl-TPU (250 μm thick, 2.0 cm diameter, ca. 110 mg, 20 μmol allyl) were submerged in 2 mL of an Ar purged (30 min) aqueous solution containing Qx-SH (10.0 mM) and LAP (5.0 mM), and allowed to pre-soak for 30 min under Ar. UV-treated samples were irradiated for 30 min (λ=365 nm, I=1.2 mW·cm^−2) while phys. ads. samples were kept in the absence of UV light for 30 min to control for any antimicrobial activity that is contributed by non-covalently attached QAC. Following treatment, the dye/photoinitiator solutions were drawn up and discarded, and the samples were rinsed with 5 mL of DI water (3×) then submerged in 5 mL of DI water. The samples were further rinsed with 10% EtOH (3×) and soaked in 10% EtOH for 15 min (3×), rinsing with 10% EtOH in between each soak.
(§1) For antimicrobial testing, blade-coated samples and catheter tubing of allyl-TPU were sterilized by EtO sterilization using an Anprolene benchtop sterilizer (Anderson Products, Inc., Haw River, N.C.) following the manufacturer's protocol to deliver approximately 0.5 cc·L^−1 of EtO gas over a 12 h sterilization cycle at 35% humidity and room temperature, followed by a 48 h purge under vacuum. The bacterial strains used in this study included Staphylococcus epidermidis (ATCC 12228), Staphylococcus aureus (25923), Escherichia coli (ATCC 25922), Pseudomonas aeruginosa (ATCC 27853), Enterococcus faecalis (ATCC 29212), and methicillin-resistant Staphylococcus aureus (MRSA) (ATCC BAA-41).
The contact-killing assay was performed on physically adsorbed (phys. ads.), and UV-treated blade-coated samples modified with a series of Qx-SH reagents using a method adapted from ISO 22196. See, International Organization for Standardization. Measurement of antibacterial activity on plastics and other non porous surfaces (ISO 22196:2011), the disclosure of which is incorporated herein by reference in its entirety. Briefly, the samples were inoculated with same day cultures of select bacteria (e.g. E. coli, S. epidermidis) in dilute nutrient media (0.2% tryptic soy broth (TSB) in 1× phosphate buffered saline (PBS)) at approximately 150 colony-forming units (CFU)·mm^−2. Generally, 35 uL of 8.5×10^5 CFU/mL cultures were dispersed across the surface of the sample using sterile polypropylene cover films (area=198 mm^2). Inoculated samples were incubated in a humidified room air incubator (36° C., ca. 80% rel. humidity) for 20 h. Following incubation, surviving cells were recovered from the samples using vigorous agitation (i.e. vortexing for 20 s in PBS). Surviving cells were enumerated via 10-fold series dilution and plating 100 μL onto tryptic soy agar (TSA), incubating overnight and then plate counting CFU. The mean CFU recovered per sample (CFU/sample) were calculated by accounting for dilutions. Internal controls samples of polypropylene and chlorhexidine treated with polypropylene were included in the assay.

[2] = tested on: P. aeruginosa; experiment: 48 h biofilm formation assay in catheter tubing; assay type: cell-based, Pseudomonas aeruginosa (ATCC 27853)
Description: For post-fabrication functionalization of the inner lumen of allyl-TPU catheter tubing with Qx-SH reagents, 0.5 mL of an Ar purged solution containing Qx-SH (10.0 mM) and LAP (5.0 mM) was flowed through 25.0 cm segments of catheter tubing every 7.5 min for the duration of a 30 min pre-soak and 30 min UV treatment (or absence of UV for phys. ads. control). Following treatment, the catheter tubes were rinsed continuously for 30 s with DI water (3×), then rinsed continuously for 30 s with 10% EtOH (3×). All samples were blown dry with N2 and placed under vacuum for 24 h before X-ray photoelectron spectroscopy (XPS) analysis or ethylene oxide (EtO) sterilization.
as §1
Biofilm formation was analyzed using overnight cultures of P. aeruginosa grown in TSB and adjusted to an OD600=0.10. An assembly of catheter tubing was prepared using aseptic techniques, and included COOK™ BEACON™ TIP TORCON NB™ Advantage catheter segments (25.0 cm in length) denoted as “CC” and numbered 1-4 from upstream (1) to downstream (4). The catheter assembly was connected using 18 gauge blunt tip stainless steel needles (˜25 mm in length) sterilized in 100% EtOH. CC segments were located before, after, and in between the untreated, phys. ads., and UV-treated allyl-TPU catheter segments modified with Q8-SH to account for any downstream influence of the experimental catheters. With a peristaltic pump flowing at 1.5 mL·min^−1, fresh bacterial inoculum was continuously streamed through the catheter assembly for 2 h, followed by FAB medium (0.10 mM CaCl2, 0.01 mM Fe-EDTA, 0.15 mM (NH4)2SO4, 0.33 mM Na2HPO4, 0.20 mM KH2PO4, 0.50 mM NaCl, 0.50% (wt/vol) casamino acids, 1.0 mM MgCl2, and 10 mM sodium citrate) for 48 h. Samples were fixed with 50 mL of a 4% paraformaldehyde solution, rinsed with 200 mL of PBS, and submerged in PBS for further testing.
Photographs of the catheter tubing were taken using a camera with a 16-megapixel Sony Exmor RS IMX240 sensor and […] lens. Catheter cross-sections were cut (ca. 2.5 mm in length) from each catheter segment, rinsed thoroughly with DI water, and lyophilized for 24 h for scanning electron microscopy (SEM) analysis. SEM was performed on gold sputter-coated samples using a JEOL-7401 Field Emission Scanning Electron Microscope (JEOL USA, Inc., Peabody, Mass.) at an accelerating voltage of 2.0 kV under 45× and 300× magnification. In addition, lyophilized cross-sections (3.0 mm in length) from randomly selected locations along each catheter segment were placed vertically on a glass slide and imaged under brightfield microscope at 4× magnification. Using Olympus VS-Desktop software, the % biofilm blockage was determined by measuring the inner luminal area of untreated catheters compared to the area of the biofilm on the interior of the contaminated catheters (Equation 1).
[formula] Results are reported as averages with standard deviations (n=3) for each catheter segment.

[3] = UV-treated allyl-TPU catheter, 48 h
[4] = phys. ads. allyl-TPU catheter, 48 h

For `CCCCCCCC[N+](C)(C)CCCCCCCCOC(=O)CCS.[Cl-]` [Q8-SH], the “Mean CFU/Sample Recovered, MRSA” value ([1]; UV-treated samples) was 0.00 CFU/Sample, the “Mean CFU/Sample Recovered, MRSA” value ([1]; phys. ads. samples) was 0.00 CFU/Sample and the “biofilm formation compared to Cook catheter, untreated and phys. ads. controls (in words)” value ([2]; UV-treated allyl-TPU catheter tubing, brightfield microscopy and SEM) was “more resistant to biofilm formation and less”. The “% biofilm blockage (internal volume occlusion)” value ([2]; UV-treated allyl-TPU catheter, inner lumen modified, 48 h, n=3) was “ca. 15%”, the “reduction of biofilm blockage from CC1” value [2, 3] was 85% and the “reduction of biofilm blockage from the untreated control” value [2, 3] was 69%. For the same compound, the “reduction of biofilm blockage from CC1” value [2, 4] was 77% and the “reduction of biofilm blockage from the untreated control” value [2, 4] was 53%.
